Reference: patent US10669296B2, “LXR agonists and uses thereof” (Rgenix, Inc., priority 2014, dated 2020)
Read-outs that look alike come from different tables or passages of the source.

Legend:
Cancer cells (MeWo) = assay: Matrigel invasion assay; format: cell-based; conditions: 1 μM drug, invasion 24 h
Protocol: Cancer cells (MeWo) were pre-treated in presence of 1 μM drug or control (DMSO) for 72 h after which cancer cells were switched to serum-starvation in 0.2% FBS DMEM-based media for 16 h in the presence of the drug or control, respectively. Trans-well invasion chambers (354480, BD Biosciences, Bedford, Mass.) were pre-equilibrated in DMEM-based media prior to the beginning of the assay by adding 0.5 ml of starvation media to the top and bottom chambers. After 30 min, the media in the top chamber was removed, and 0.5 ml of media containing 1×10^5 cancer cells in the presence of the drug, was added into each matrigel-coated trans-well insert. Cells were allowed to invade through the matrigel-coated inserts for 24 h at 37° C.

ApoE [1] = assay: Pharmacodynamic analysis of ApoE in peripheral blood lymphocytes (qRT-PCR); format: in vivo, mouse; conditions: mice
Protocol: In Vivo Dosing and Sample Collection: 6-7 week old […] received a single dose of Compound 8 at 52.6 mg/kg, formulated in 2% DMSO/20% Propylene Glycol/78% 0.5% Methylcellulose (400 cp) at a final concentration of 4.62 mg/mL by oral gavage. Bleeds were taken at 0.5 h, 2 h, 4 h, 8 h, 16 h, 24 h and 48 h. Mice were bled twice, the first bleed was drawn submandibular and the second through intracardiac puncture. Blood was collected in Dipotassium EDTA Microtainer tubes (02-669-38, Fisher). To isolate peripheral blood lymphocytes, blood samples were centrifuged at 2000 g for 5 min. After separation of the plasma, Erythrocytes were lysed in 1 mL Erythrocyte Lysis (EL) buffer (79217, Qiagen) and incubation at room temperature for 20 min. Samples were centrifuged at 400 g for 10 min, and peripheral blood lymphocytes washed once in EL buffer, followed by one wash in PBS.
ApoE Gene Expression Analysis by qRT-PCR: RNA was extracted from peripheral blood lymphocytes using the Total RNA Purification Micro Kit (35300, Norgen, Thorold, Canada). 200-300 ng of total RNA was then reverse transcribed into cDNA using the Verso cDNA synthesis Kit (AB-1453B, Fisher Scientific) and 6 ng of the resulting cDNA was mixed with SYBR Green PCR Mater Mix (4385612, Applied Biosystems) and quantitative real-time PCR amplification was performed using an ABI Prism 7900HT Real-Time PCR System (Applied Biosystems, Austin, Tex.). Each PCR reaction was carried out in quadruplicates. Gene expression was normalized to GAPDH, which was used as an endogenous control. Primers used as described in Example 86.
Results: The results of ApoE induction in vivo by compound 8 is shown in Table 9 where Pre-Dose represents endogenous levels of ApoE induction prior to dosing, n is the number of samples analyzed, and values are expressed as fold induction over pre-dose endogenous ApoE levels (normalized to 1.0). Peak induction of compound 8 is >6-fold over background at 4 h.

B16F10 melanoma cells = assay: In vivo primary tumor growth assay; parameters: species or system mouse; conditions: B16F10 in C57B16 mice
Protocol: For primary tumor growth studies, 5×10^4 B16F10 melanoma cells were mixed 1:1 with matrigel and subcutaneously injected into the lower flanks of 6-week old C57B16 mice. Upon the formation of palpable tumors, 4-5 days after tumor cell injection, 10 mice were randomly assigned to groups eating a control diet or a diet supplemented with compound 8 (5 and 25 mg/kg). Tumor volume was calculated as (small diameter)^2×(large diameter)/2 and tumor growth inhibition was measured relative to vehicle control.

ApoE [2] = assay: ApoE gene expression analysis by qRT-PCR in MeWo cancer cells; format: cell-based; conditions: 48 h; for Emax at 1 µM / Emax at 10 µM: read-out: ApoE gene expression in relation to GW3965 at 1 μM (100%)
Protocol: Cancer cells (MeWo) were treated in presence of drug or control (DMSO) at indicated concentrations for 48 h. RNA was extracted from whole cell lysates using the Total RNA Purification Kit (17200, Norgen, Thorold, Canada). 600 ng of total RNA was then reverse transcribed into cDNA using the Verso cDNA Synthesis Kit (AB-1453/B, Fisher Scientific). 6 ng of the resulting cDNA was then mixed with SYBR green PCR Master Mix (4309155, Applied Biosystems) and the appropriate primers. Each reaction was performed in quadruplicate, and mRNA expression was quantified by performing real-time PCR amplification using a StepOne Plus Real-Time PCR System (Applied Biosystems). GAPDH was used as an endogenous control for normalization. EC50 values were calculated using Prism6 software and plotting expression values versus drug concentration. The following primers were used: [table] The results are shown in relation to GW3965 ApoE expression at 1 μM (i.e. 100%).

LXRβ = LXRβ (Homo sapiens (Human), UniProt P55055); assay: ligand sensing assay (LiSA), LXRβ; format: biochemical; conditions: ratio of EC50 values
LXRβ, sequence (P55055 whole entry): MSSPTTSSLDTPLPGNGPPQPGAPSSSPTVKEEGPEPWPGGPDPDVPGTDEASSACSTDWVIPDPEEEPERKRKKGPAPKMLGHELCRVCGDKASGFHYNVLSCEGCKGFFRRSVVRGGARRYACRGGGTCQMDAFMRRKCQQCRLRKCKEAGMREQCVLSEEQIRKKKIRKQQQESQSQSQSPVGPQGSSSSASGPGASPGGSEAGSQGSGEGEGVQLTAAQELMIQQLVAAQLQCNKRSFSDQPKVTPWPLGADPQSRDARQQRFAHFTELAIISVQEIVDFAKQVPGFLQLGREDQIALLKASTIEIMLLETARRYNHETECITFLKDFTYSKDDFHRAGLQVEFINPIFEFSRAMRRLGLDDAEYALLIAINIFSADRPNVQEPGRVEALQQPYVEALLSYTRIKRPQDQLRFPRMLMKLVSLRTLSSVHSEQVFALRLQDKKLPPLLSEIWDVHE
Description: As used herein, reference to the activity of an LXR agonist at LXRα and LXRβ refer to the activity as measured using the ligand sensing assay (LiSA) described in Spencer et al. J. Med. Chem. 2001, 44, 886-897, incorporated herein by reference. […] For example, the methods of the invention can be performed using an LXRβ agonist having activity for LXRβ that is at least 3-fold greater than the activity of the agonist for LXRα, or having activity for LXRβ that is at least 10-fold greater than the activity of the agonist for LXRα, or having activity for LXRβ that is at least 100-fold greater than the activity of the agonist for LXRα, or having activity for LXRβ that is at least within 3-fold of the activity of the agonist for LXRα. The term “greater activity” in the LiSA assay refers to a lower EC50.

Aβ plaque burden = conditions: mouse model of Alzheimer's disease, Jiang et al., Neuron 2008; cited from earlier work

Row | SMILES | EC50 (ApoE [2]; Homo sapiens, MeWo) [nM] | % of Cells Migrated Compared to Control (Cancer cells (MeWo)) [%] | Emax at 1 µM (ApoE [2]; Homo sapiens, MeWo, 1 μM) [%] | Emax at 10 µM (ApoE [2]; Homo sapiens, MeWo) [%] | also measured
1 | CS(=O)(=O)c1cc(OCCCN(Cc2cccc(C(F)(F)F)c2Cl)CC(c2ccccc2)c2ccccc2)cc(F)c1CO [Compound 8, {4-[3-({[2-chloro-3-(trifluoromethyl)phenyl]methyl}(2,2-diphenylethyl)amino)propoxy]-2-fluoro-6-methanesulfonylphenyl}methanol] | < 1000 | <50 | > 80 | > 80 | Fold ApoE Induction Over Pre-Dose Level (+/−S.D.) (ApoE [1]; 0.5 h after single oral dose 52.6 mg/kg): 1.3 (+/−0.3) fold; Fold ApoE Induction Over Pre-Dose Level (+/−S.D.) (ApoE [1]; 2 h after single oral dose 52.6 mg/kg): 2.7 (+/−0.5) fold; Fold ApoE Induction Over Pre-Dose Level (+/−S.D.) (ApoE [1]; 4 h after single oral dose 52.6 mg/kg): 6.3 (+/−1.8) fold; Fold ApoE Induction Over Pre-Dose Level (+/−S.D.) (ApoE [1]; 8 h after single oral dose 52.6 mg/kg): 3.8 (+/−2.4) fold; Fold ApoE Induction Over Pre-Dose Level (+/−S.D.) (ApoE [1]; 16 h after single oral dose 52.6 mg/kg): 0.3 (+/−0.4) fold; Fold ApoE Induction Over Pre-Dose Level (+/−S.D.) (ApoE [1]; 24 h after single oral dose 52.6 mg/kg): 0.4 (+/−0.6) fold; Fold ApoE Induction Over Pre-Dose Level (+/−S.D.) (ApoE [1]; 48 h after single oral dose 52.6 mg/kg): 0.1 (+/−0.3) fold; Mean tumor volume (mm3) (+/−S.E.M.) (B16F10 melanoma cells; 5 mg/kg in diet): 686 (+/−97) mm3; Tumor growth inhibition % of control (+/−S.E.M.) (B16F10 melanoma cells; 5 mg/kg in diet): 13% (+/−12%); Mean tumor volume (mm3) (+/−S.E.M.) (B16F10 melanoma cells; 25 mg/kg in diet): 475 (+/−56) mm3
2 | CS(=O)(=O)N1CCCC(OCCCN(Cc2cccc(C(F)(F)F)c2Cl)CC(c2ccccc2)c2ccccc2)C1 (centres unmarked) [Compound 29, {[2-chloro-3-(trifluoromethyl)phenyl]methyl}(2,2-diphenylethyl){3-[(1-methanesulfonylpiperidin-3-yl)oxy]propyl}amine] | – | <50 | – | > 80 | ApoE gene expression in relation to GW3965 at 1 μM (100%) (ApoE [2]; 1 μM): ++ (“++” > 40% induction); EC50 (ApoE [2]): < 300 nM
3 | C[C@H](CCO[C@H]1CCCN(S(C)(=O)=O)C1)N(Cc1cccc(C(F)(F)F)c1Cl)CC(c1ccccc1)c1ccccc1 [Compound 31, {[2-chloro-3-(trifluoromethyl)phenyl]methyl}(2,2-diphenylethyl)[(2R)-4-{[(3S)-1-methanesulfonylpiperidin-3-yl]oxy}butan-2-yl]amine] | < 1000 | <70 | > 40 | > 80 | –

Continued, in another order:

Row | EC50 (ApoE [2]; Homo sapiens, MeWo) [nM] | SMILES | % of Cells Migrated Compared to Control (Cancer cells (MeWo)) [%] | Emax at 1 µM (ApoE [2]; Homo sapiens, MeWo, 1 μM) [%] | Emax at 10 µM (ApoE [2]; Homo sapiens, MeWo) [%] | also measured
4 | < 300 | O=C(O)Cc1cccc(OCCCN(Cc2cccc(C(F)(F)F)c2Cl)CC(c2ccccc2)c2ccccc2)c1 [GW3965, reference compound] | <70 | – | > 40 | fold greater activity for LXRβ compared to LXRα (LXRβ): approximately 6 fold; Emax at 1 µM (ApoE [2]; Homo sapiens, MeWo, 1 μM, reference value): 100%; amyloid-beta plaques (Aβ plaque burden): therapeutic reduction of amyloid-beta plaques
5 | < 1000 | CC(CCOc1cccc(CC(=O)O)c1)N(Cc1cccc(C(F)(F)F)c1Cl)CC(c1ccccc1)c1ccccc1 (centres unmarked) [SB742881, reference compound] | <70 | > 40 | > 40 | –
